Measurements published in patent publication US20260234135A1, “CRYSTALLINE FORMS OR SALTS OF A DEUTERATED COMPOUND” (ALEBUND PHARMACEUTICALS (HONG KONG) LIMITED, priority 2023, published 2026).
Where two headings read alike, the source gives them in different places.

Columns and labels:
[1] = Hygroscopicity evaluation by DVS at 25° C.; format: physicochemical
Experimental: DVS was measured via a SMS (Surface Measurement Systems) DVS Intrinsic. The relative humidity at 25° C. were calibrated against deliquescence point of LiCl, Mg(NO3)2 and KCl.

[2] = for Form or purity change after storage: 60° C./close and 40° C./75% RH/open for 2/4/8 weeks

N=C(N)NCCCC(N)C(=O)O.[2H]C([2H])(Cc1nc(-c2ccccc2)oc1C)Oc1ccc(C[C@H](OC)C(=O)O)c2sccc12 [arginine salt Form A]
Hygroscopicity ([1]; DVS, 25° C.): slightly hygroscopicity
Water uptake up to 80% RH ([1]; DVS, 25° C.): 0.5%
Form change after DVS test ([1]; XRPD after DVS): No form change
Area (%) of impurity peak RRT 0.88 ([2]; 40° C./75% RH, 2 weeks): 0.14%
Area (%) of impurity peak RRT 1.14 ([2]; 40° C./75% RH, 2 weeks): 0.06%
Area (%) of impurity peak RRT 1.34 ([2]; 40° C./75% RH, 2 weeks): 0.22%
Area (%) of impurity peak RRT 0.88 ([2]; 40° C./75% RH, 4 weeks): 0.11%
Area (%) of impurity peak RRT 1.34 ([2]; 40° C./75% RH, 4 weeks): 0.19%
Area (%) of impurity peak RRT 0.88 ([2]; 40° C./75% RH, 8 weeks): 0.07%
Area (%) of impurity peak RRT 1.34 ([2]; 40° C./75% RH, 8 weeks): 0.19%
HPLC Purity (area %), main peak RRT 1.00 ([2]; 40° C./75% RH/open, 2 weeks): 99.59 area %
HPLC Reults of initial (%) ([2]; 40° C./75% RH/open, 2 weeks): 99.87%
HPLC Purity (area %), main peak RRT 1.00 ([2]; 40° C./75% RH/open, 4 weeks): 99.70 area %
HPLC Reults of initial (%) ([2]; 40° C./75% RH/open, 4 weeks): 99.98%
HPLC Purity (area %), main peak RRT 1.00 ([2]; 40° C./75% RH/open, 8 weeks): 99.74 area %
HPLC Reults of initial (%) ([2]; 40° C./75% RH/open, 8 weeks): 100.02%
Area (%) of impurity peak RRT 0.88 ([2]; 60° C., 2 weeks): 0.06%
Area (%) of impurity peak RRT 1.34 ([2]; 60° C., 2 weeks): 0.18%
Area (%) of impurity peak RRT 0.88 ([2]; 60° C., 4 weeks): 0.09%
Area (%) of impurity peak RRT 1.34 ([2]; 60° C., 4 weeks): 0.18%
Area (%) of impurity peak RRT 0.81 ([2]; 60° C., 8 weeks): 0.05%
Area (%) of impurity peak RRT 0.88 ([2]; 60° C., 8 weeks): 0.06%
Area (%) of impurity peak RRT 1.34 ([2]; 60° C., 8 weeks): 0.18%
Form or purity change after storage [2]: No form or purity decrease
HPLC Purity (area %), main peak RRT 1.00 ([2]; 60° C./close, 2 weeks): 99.76 area %
HPLC Reults of initial (%) ([2]; 60° C./close, 2 weeks): 100.04%
HPLC Purity (area %), main peak RRT 1.00 ([2]; 60° C./close, 4 weeks): 99.73 area %
HPLC Reults of initial (%) ([2]; 60° C./close, 4 weeks): 100.01%
HPLC Purity (area %), main peak RRT 1.00 ([2]; 60° C./close, 8 weeks): 99.71 area %
HPLC Reults of initial (%) ([2]; 60° C./close, 8 weeks): 99.99%
Area (%) of impurity peak RRT 0.88 ([2]; Initial): 0.07%
Area (%) of impurity peak RRT 1.34 ([2]; Initial): 0.20%
HPLC Purity (area %), main peak RRT 1.00 ([2]; Initial): 99.72 area %

[2H]C([2H])(Cc1nc(-c2ccccc2)oc1C)Oc1ccc(C[C@H](OC)C(=O)O)c2sccc12 [free acid Form E]
Area (%) of impurity peak RRT 0.88 ([2]; 40° C./75% RH, 2 weeks): 0.33%
Area (%) of impurity peak RRT 1.14 ([2]; 40° C./75% RH, 2 weeks): 0.15%
Area (%) of impurity peak RRT 1.28 ([2]; 40° C./75% RH, 2 weeks): 0.18%
Area (%) of impurity peak RRT 1.33 ([2]; 40° C./75% RH, 2 weeks): 0.25%
Area (%) of impurity peak RRT 0.88 ([2]; 40° C./75% RH, 4 weeks): 0.35%
Area (%) of impurity peak RRT 1.14 ([2]; 40° C./75% RH, 4 weeks): 0.15%
Area (%) of impurity peak RRT 1.28 ([2]; 40° C./75% RH, 4 weeks): 0.23%
Area (%) of impurity peak RRT 1.33 ([2]; 40° C./75% RH, 4 weeks): 0.27%
Area (%) of impurity peak RRT 0.88 ([2]; 40° C./75% RH, 8 weeks): 0.32%
Area (%) of impurity peak RRT 1.14 ([2]; 40° C./75% RH, 8 weeks): 0.13%
Area (%) of impurity peak RRT 1.28 ([2]; 40° C./75% RH, 8 weeks): 0.20%
Area (%) of impurity peak RRT 1.33 ([2]; 40° C./75% RH, 8 weeks): 0.27%
HPLC Purity (area %), main peak RRT 1.00 ([2]; 40° C./75% RH/open, 2 weeks): 99.08 area %
HPLC Reults of initial (%) ([2]; 40° C./75% RH/open, 2 weeks): 100.07%
HPLC Purity (area %), main peak RRT 1.00 ([2]; 40° C./75% RH/open, 4 weeks): 99.00 area %
HPLC Reults of initial (%) ([2]; 40° C./75% RH/open, 4 weeks): 99.99%
HPLC Purity (area %), main peak RRT 1.00 ([2]; 40° C./75% RH/open, 8 weeks): 99.03 area %
HPLC Reults of initial (%) ([2]; 40° C./75% RH/open, 8 weeks): 100.02%
Area (%) of impurity peak RRT 0.88 ([2]; 60° C., 2 weeks): 0.32%
Area (%) of impurity peak RRT 1.14 ([2]; 60° C., 2 weeks): 0.16%
Area (%) of impurity peak RRT 1.28 ([2]; 60° C., 2 weeks): 0.23%
Area (%) of impurity peak RRT 1.33 ([2]; 60° C., 2 weeks): 0.25%
Area (%) of impurity peak RRT 0.88 ([2]; 60° C., 4 weeks): 0.38%
Area (%) of impurity peak RRT 1.14 ([2]; 60° C., 4 weeks): 0.17%
Area (%) of impurity peak RRT 1.28 ([2]; 60° C., 4 weeks): 0.26%
Area (%) of impurity peak RRT 1.33 ([2]; 60° C., 4 weeks): 0.29%
Area (%) of impurity peak RRT 0.88 ([2]; 60° C., 8 weeks): 0.34%
Area (%) of impurity peak RRT 1.14 ([2]; 60° C., 8 weeks): 0.14%
Area (%) of impurity peak RRT 1.28 ([2]; 60° C., 8 weeks): 0.23%
Area (%) of impurity peak RRT 1.33 ([2]; 60° C., 8 weeks): 0.27%
Form or purity change after storage [2]: No form or purity decrease
HPLC Purity (area %), main peak RRT 1.00 ([2]; 60° C./close, 2 weeks): 99.04 area %
HPLC Reults of initial (%) ([2]; 60° C./close, 2 weeks): 100.03%
HPLC Purity (area %), main peak RRT 1.00 ([2]; 60° C./close, 4 weeks): 98.89 area %
HPLC Reults of initial (%) ([2]; 60° C./close, 4 weeks): 99.88%
HPLC Purity (area %), main peak RRT 1.00 ([2]; 60° C./close, 8 weeks): 98.96 area %
HPLC Reults of initial (%) ([2]; 60° C./close, 8 weeks): 99.95%
Area (%) of impurity peak RRT 0.88 ([2]; Initial): 0.31%
Area (%) of impurity peak RRT 1.14 ([2]; Initial): 0.16%
Area (%) of impurity peak RRT 1.28 ([2]; Initial): 0.26%
Area (%) of impurity peak RRT 1.33 ([2]; Initial): 0.25%
HPLC Purity (area %), main peak RRT 1.00 ([2]; Initial): 99.01 area %
